From PubChem BioAssay (NCI)
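Five compound concentrations were applied to cells in 96-well plates for 48 hours; endpoints were derived by simple linear interpolation of the resulting dose-response curve. TGI is the concentration that stops growth completely.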

How the values were obtained:
Test in all cases: inhibition of tumour cell growth, NCI panel, 48 h
KM12 colon = test system: KM12 colon
U251 CNS = test system: U251 CNS
SW-620 colon = test system: SW-620 colon
SK-MEL-28 melanoma = test system: SK-MEL-28 melanoma
COLO 205 colon = test system: COLO 205 colon
SF-295 CNS = test system: SF-295 CNS
DU-145 prostate = test system: DU-145 prostate
T-47D breast = test system: T-47D breast
RPMI-8226 leukemia = test system: RPMI-8226 leukemia
UACC-62 melanoma = test system: UACC-62 melanoma
TK-10 renal = test system: TK-10 renal
M14 melanoma = test system: M14 melanoma
RXF 393 renal = test system: RXF 393 renal
UO-31 renal = test system: UO-31 renal
EKVX NSCLC = test system: EKVX NSCLC
786-0 renal = test system: 786-0 renal
UACC-257 melanoma = test system: UACC-257 melanoma
BT-549 breast = test system: BT-549 breast
LOX IMVI melanoma = test system: LOX IMVI melanoma
OVCAR-8 ovarian = test system: OVCAR-8 ovarian

Measured: TGI

O=C(c1ccccc1)c1ccc2c(c1)nc1n2C(c2c(F)cccc2F)SC1 (stereo not given)
72.2 µM: UACC-62 melanoma
43.5 µM: T-47D breast
61 µM: M14 melanoma
54.8 µM: UO-31 renal
84.5 µM: EKVX NSCLC
46.4 µM: COLO 205 colon
66.7 µM: KM12 colon
> 100 µM: U251 CNS | SW-620 colon | SK-MEL-28 melanoma | SF-295 CNS | DU-145 prostate | RPMI-8226 leukemia | TK-10 renal | RXF 393 renal | 786-0 renal | UACC-257 melanoma | BT-549 breast | LOX IMVI melanoma | OVCAR-8 ovarian

Cc1nc(C)c(N2CCN(C(=O)O)CC2)c(=O)[nH]1
> 100 µM: KM12 colon | U251 CNS | SW-620 colon | SK-MEL-28 melanoma | COLO 205 colon | SF-295 CNS | DU-145 prostate | T-47D breast | RPMI-8226 leukemia | UACC-62 melanoma | TK-10 renal | M14 melanoma | RXF 393 renal | UO-31 renal | EKVX NSCLC | 786-0 renal | UACC-257 melanoma | BT-549 breast | LOX IMVI melanoma | OVCAR-8 ovarian

NC(=O)C(=CNC(=S)Nc1ccc(S(=O)(=O)Nc2ccccn2)cc1)C(N)=O
> 100 µM: KM12 colon | U251 CNS | SW-620 colon | SK-MEL-28 melanoma | COLO 205 colon | SF-295 CNS | DU-145 prostate | T-47D breast | RPMI-8226 leukemia | UACC-62 melanoma | TK-10 renal | M14 melanoma | RXF 393 renal | UO-31 renal | EKVX NSCLC | 786-0 renal | UACC-257 melanoma | BT-549 breast | LOX IMVI melanoma | OVCAR-8 ovarian

CCN(CC)c1ccc2cc(C(=O)NCc3ccccc3)c(=N)oc2c1
> 28.6 µM: T-47D breast
> 100 µM: KM12 colon | U251 CNS | SW-620 colon | SK-MEL-28 melanoma | SF-295 CNS | DU-145 prostate | UACC-62 melanoma | TK-10 renal | M14 melanoma | RXF 393 renal | EKVX NSCLC | 786-0 renal | UACC-257 melanoma | BT-549 breast | LOX IMVI melanoma | OVCAR-8 ovarian
> 59.7 µM: COLO 205 colon | RPMI-8226 leukemia
97.3 µM: UO-31 renal

CCCCCCNC(=S)N/N=C(\C)c1ccccn1
10.9 µM: UO-31 renal
42 µM: TK-10 renal
16.8 µM: BT-549 breast
12.5 µM: SF-295 CNS | RXF 393 renal
6.37 µM: UACC-62 melanoma
19.3 µM: SW-620 colon
12.1 µM: 786-0 renal
18.2 µM: COLO 205 colon
47.2 µM: EKVX NSCLC
10.2 µM: OVCAR-8 ovarian
8.97 µM: KM12 colon
23.4 µM: T-47D breast
6.86 µM: M14 melanoma
14.2 µM: U251 CNS
30.4 µM: DU-145 prostate
15.3 µM: UACC-257 melanoma
18.5 µM: SK-MEL-28 melanoma
9.31 µM: RPMI-8226 leukemia
12.3 µM: LOX IMVI melanoma
